What was measured:
Format in all cases: cell-based, human
c-Jun = c-Jun phosphorylation (JNK substrate) by Western blot
Description: Similar results were also observed in α-TEA treated MCF-7 cells in the presence of JNK inhibitor II (7.5 μM of JNK inhibitor II (Calbiochem-Novabiochem Corp. San Diego, Calif.) vs. DMSO control). Specifically, 68% reduction in the level of phosphorylated c-Jun (FIG. 11B, top panel), almost 100% reduction in NOXA expression (FIG. 11B, second panel), and 29% reduction in the level of PARP cleavage (FIG. 11B, third panel).
JNK siRNA was used to determine if JNK was involved in α-TEA regulation of NOXA expression. MDA-MB-435 and MCF-7 cells were transiently transfected with siRNA specific for JNK1/2 (JNK1/2 sense (5′-AAA GAA UGU CCU ACC UUC Utt-3′), JNK1/2 antisense (5′AGA AGG UAG GAC AUU CUU Utt-3′)). The cells were then treated with α-TEA for 15 h, or 20 h, respectively. […] Likewise in MCF-7 cells JNK siRNA blocked JNK1 phosphorylation by 26% (FIG. 11D, first panel), blocked c-Jun phosphorylation by 36% (FIG. 1D, second panel), reduced protein levels of full length p73 by 66% (FIG. 1D, third panel), reduced protein levels of NOXA by 14% (FIG. 1D, fourth panel), and reduced level of PARP cleavage by 44% (FIG. 11D, fifth panel). Anti-p73 antibodies used in the foregoing experiment were purchases from IMGENEX (San Diego, Calif.).

PARP = PARP cleavage (p84) by Western blot, densitometry
Description: Whole-cell protein extracts were prepared as described previously (Yu et al., 1999), and 50 μg of protein was loaded per lane, separated using SDS-PAGE on a 10-15% gel under reducing conditions, and electroblotted onto a nitrocellulose membrane ([…] Optitran BA-S-supported nitrocellulose; Schleicher and Schuell, Keene, N.H.). Equal loading was verified using GAPDH antibody. Primary rabbit antibodies with specificity for PARP and primary goat antibody with specificity for Arg were purchased from Santa Cruz Biotechnology (Santa Cruz, Calif.). Horseradish peroxidase conjugated goat anti-rabbit or horseradish goat anti-mouse secondary antibody was purchased from Jackson Immunoresearch Laboratory (West Grove, Pa.). Horseradish peroxidase-conjugated donkey anti-goat serum was purchased from Santa Cruz Biotechnology. Immune complexes were visualized using enhanced chemiluminescence detection (Pierce Chemical Co., Rockford, Ill.). Fold differences in level of chemiluminescence were determined by densitometric analyses.
Primary mouse antibody specific for p73 was purchased from IMGENEX (San Diego, Calif.). Primary mouse antibody specific for caspase 8 was purchased from Cell Signaling Technology (Beverly, Mass.). Horseradish peroxidase conjugated goat anti-rabbit or goat anti-mouse secondary antibodies were purchased from Jackson Immunoresearch Laboratory (West Grove, Pa.). Horseradish peroxidase-conjugated donkey […] serum was purchased from Santa Cruz Biotechnology. Immune complexes were visualized using enhanced chemiluminescence detection (Pierce Chemical Co., Rockford, Ill.). Fold differences in level of chemiluminescence were determined by densitometric analyses.

NOXA = NOXA mRNA (RT-PCR) and protein (Western blot) levels
LNCaP cells = test: Apoptosis by DAPI staining, LNCaP
Description: Cells were plated at 2×10^6 in 100 mm cell culture plates, cultured overnight and washed with serum free media before transfection. Plasmids (0.7 μg or 4.2 of μg) or empty vector (pcDNA3) were mixed with 50 μl or 300 μl serum free media and 4 μl or 24 μl PLUS reagent (Invitrogen, CA) and incubated for 15 min at room temperature. Next 2 μl or 12 μl of Lipofectamine reagent (Invitrogen, CA) in 50 μl or 300 μl serum free media were added and the mixture incubated for another 15 min before adding to the cells in 0.5 ml or 5 ml serum free media. Cells were incubated with transfection reagents for 3 h and the growth media containing 2×FBS was added to the cells. Transfected cells were cultured overnight before α-TEA treatment. Transfection efficiency was determined to be 70% using GFP expressing plasmid.
(§1) Assessment of apoptosis based on nuclear morphology using 4′, 6-diamidino-2-phenylindole dihydrochloride (DAPI; Boehringer Mannheim Corp. Indianapolis, Ind.) has been described previously (Yu et al., 2003; Israel et al., 2000). Briefly, 1.5×10^5/well LNCaP or PC-3-GFP cells were plated in 12-well tissue culture plates and cultured overnight to allow cells to attach. On the next day, cells were treated with various concentrations of α-TEA and incubated for various time periods. At the end of treatments, cells were collected, washed with PBS, stained with 25 μl of 2 μg/ml DAPI, and viewed under a fluorescent microscope (model ICM 405 with a model 487701 filter, Zeiss). Cells which contained clearly condensed chromatin or fragmented nuclei were scored as apoptotic cells. ≧500 cells were counted in each sample. Apoptotic data are presented as percentage of apoptotic cells±S.D. for three independent experiments.
FOXO1 siRNA used in the study was purchased from Santa Cruz (Santa Cruz, Calif.). […] Transfection of human prostate cancer cells with FOXO1 siRNA or negative control siRNA was performed in 100 mm cell culture dishes at a density of 2×10^6 cells/dish using Lipofectamine 2000 (Invitrogen, Carlsbad, Calif.) and 300 pmol of siRNA duplex, resulting in a final siRNA concentration of 30 nM. siRNA transfected cells were incubated for 48-72 h prior to α-TEA treatment.

PC-3-GFP cells = test: Apoptosis by DAPI staining, PC-3-GFP
Description: as §1

Akt = test: Western blot of phosphorylated Akt (Ser 473) and total Akt in prostate cancer cells
Text: Previous studies have shown that α-TEA is an effective inducer of apoptosis in human prostate cancer cells (Anderson et al., 2004). Dose- and time-dependent pro-apoptotic effects of α-TEA in prostate cancer cells are mediated by Fas/FADD/caspase-8/tBid and Fas/Daxx/Ask1/JNK1/2/Bax, leading to activation of caspases-9 and -3. Thus, the Akt inhibiting activity of α-TEA was investigated in prostate cancer cells. Since phosphorylation of Akt at Ser 473 is required for its full activation (Cheng et al., 2005), we examined the phosphorylation status of Akt using an antibody that specifically recognizes Akt phosphorylated at Ser 473 in all three Akt isoforms (Upstate Cell Signaling Solutions (Charlottesville, Va.)). α-TEA decreased the levels of the phosphorylated forms of Akt. […] As verification that the decreases in phosphorylation status of Akt correlated with decreased kinase activity, the phosphorylation status of GSK3β, a downstream Akt target, was evaluated following α-TEA treatments. […] GAPDH levels were assayed with each immunoblot assay as a protein loading control.
Since Akt has three isoforms; namely, Akt1, Akt2, and Akt3, it was of interest to determine if α-TEA treatment was reducing the phosphorylated status of all three isoforms. Following α-TEA treatment the three Akt isoforms were immunoprecipitated with isoform specific antibodies, followed by western immunoblotting analyses using antibody specific for phospho-Akt. The protein levels of the isoforms were also determined. […] Treatment diminished the phosphorylation levels in all three Akt isoforms in both LNCaP and PC-3-GFP cells.
1×10^7 LNCaP or PC-3 3-GFP cells were treated with α-TEA and lysed in RIPA lysis buffer in the presence of protease inhibitors. […] Beads were washed 4 times with PBS and the proteins were released from the beads by boiling in Laemmli buffer for 5 min. Immunoprecipitated proteins were identified by SDS-PAGE followed by western immunoblot analyses.
Since Akt is activated, at least in part, by PI3K, we were interested to see if blockage of PI3K activity using the PI3K inhibitor LY294002 (Calbiochem-Novabiochem Corp. (San Diego, Calif.)) (Vlahos et al., 1994) would augment the apoptotic response induced by α-TEA.

[1] = MCF-7 cells, 40 μM α-TEA 20 h, vs DMSO or control siRNA
[2] = MDA-MB-435 cells, 40 μM α-TEA 15 h, vs vehicle or control siRNA

| SMILES | reduction of α-TEA-induced c-Jun phosphorylation (c-Jun; [1]) | reduction of α-TEA-induced c-Jun phosphorylation (c-Jun; [2]) | reduction of level of PARP cleavage in α-TEA treated cells (PARP; [1]) | reduction of PARP cleavage (p84 fragment) in α-TEA treated cells (PARP; MDA-MB-435 cells, 40 μM α-TEA 15 h, vs control siRNA or vehicle) | reduction of α-TEA-induced NOXA expression (NOXA; [1]) | reduction of α-TEA-induced NOXA expression (NOXA; [2]) | induction of apoptosis (apoptotic cells) (LNCaP cells; 6 μM LY294002, 24 h) | induction of apoptosis (apoptotic cells) (LNCaP cells; 12 μM LY294002, 24 h) | induction of apoptosis (apoptotic cells) (LNCaP cells; 25 μM LY294002, 24 h) | apoptotic cells (PC-3-GFP cells; 25 μM LY294002, 24 h) | apoptotic cells (PC-3-GFP cells; 50 μM LY294002, 24 h) | inhibition of levels of endogenously phosphorylated Akt (Akt; LNCaP cells, 10 μM α-TEA and/or 10 μM LY294002) | inhibition of levels of endogenously phosphorylated Akt (Akt; PC-3-GFP cells, 20 μM α-TEA and/or 10 μM LY294002) |
| --- | --- | --- | --- | --- | --- | --- | --- | --- | --- | --- | --- | --- | --- |
| O=C1c2ccccc2-c2n[nH]c3cccc1c23 [JNK inhibitor II] | 68% | 38% | 29% | 34% | ~100% | 41% | – | – | – | – | – | – | – |
| O=c1cc(N2CCOCC2)oc2c(-c3ccccc3)cccc12 [LY294002, 2-(4-morpholinyl)-8-phenyl-4H-1-benzopyran-4-one, reference compound] | – | – | – | – | – | – | 4.9% | 13% | 41% | 6.2% | approximately 15% | 20% | 60% |

Reference: US20100292316A1, “IMPROVED THERAPEUTIC METHODS AND COMPOSITIONS COMPRISING CHROMAN RING COMPOUNDS” (Research Development Foundation, priority 2007, published 2010)
